Read-outs that look alike come from different tables or passages of the source.
Key:
[1] = test system: quail chymotrypsin; experiment: ATEE assay: inhibition of quail intestinal chymotrypsin activity; assay type: biochemical, Japanese quail; settings: compound 1 x 10⁻⁵M; ATEE substrate; percentage inhibition of control activity ± standard deviation (n = 3); 5 min, 10 µM
Experimental: The substrate was prepared by dissolving ATEE (10 mg) in Tris-HCl buffer of pH 7.5 containing 30% (v/v) of methanol (25 ml). The quail intestine protease activity was partially purified as described above prior to testing for chymotrypsin activity. The reaction was carried out in a quartz cuvette (1 x 0.25 x 1 cm³) containing substrate (1 ml) and 100 mM Tris-HCl buffer (200 µl). The reaction was started by the addition of the partially purified intestine protease (200 µl) and followed bv the decrease in absorbance at 237 nm over a 5 minute period. All determinations were carried out in triplicate against a reagent blank.

[2] = test system: bullfinch trypsin; experiment: BAEE assay: inhibition of bullfinch intestinal trypsin activity; assay type: biochemical; settings: compound 1 x 10⁻⁵M; BAEE substrate; percentage inhibition of control activity ± standard deviation (n = 3); 7 min, 10 µM
Experimental: (§1) Dried avian intestine powder (500 mg) was extracted for 30 minutes in 1 mM HC₁ (5 ml). The extract was centrifuged at 22,000 x g for 30 minutes at 4°C. The resultant supernatant was applied to a column of Sephadex G-50, medium grade (360 mm x 15 mm) and eluted with 0.5 mM HCl at 0.7 ml/min. Fractions (3.5 ml) were collected and tested for the presence of protein by determining their absorbance at 280 nm. The proteinaceous fractions were bulked and concentrated by passing them through an ultrafiltration unit (YM 30 filter). The concentrate was collected and kept at 4°C throughout its use.
The substrate was prepared bv dissolving BAEE (10 mg) in a mixture of 50 mM Tris-HCl buffer of pH 7.5 (24 ml) and 5% (w/v) calcium chloride solution (1 ml). The bullfinch intestine protease activity was partially purified as described above prior to testing for trypsin activity. The reaction was carried out in a quartz cuvette (1 x 0.25 x 1 cm³) containing substrate (1 ml) and 50 mM Tris-HCl buffer (200 µl). The reaction was started by the addition of the partially purified intestine protease 1200 µl) and followed by the decrease in absorbance at 253 nm over a 7 minute period. All determinations were carried out in triplicate against a reagent blank.
(§2) In both the chymotrypsin and the trypsin assays a control was however carried out using the 200 µl of buffer containing no added compound.

[3] = test system: pigeon trypsin; experiment: TAME assay: inhibition of pigeon intestinal trypsin activity; assay type: biochemical; settings: compound 60 µg/ml; TAME substrate; percentage inhibition of control activity ± standard deviation (n = 3); 5 min
Experimental: as §1
The substrate was prepared by dissolving TAME (19 mg) in a mixture of 100 mM Tris-HCl buffer of pH 7.5 (50 ml) and 5% (w/v) calcium chloride solution (2 ml). The pigeon intestine protease was partially purified as described above prior to testing for trypsin activity. The reaction was carried out in a quartz cuvette (1 x 0.25 x 1 cm³) containing substrate (3 ml) and 100 mM Tris-HCl buffer pH 7.5 (100 µl). The reaction was started by the addition of the partially purified intestine protease (100 µl) and followed by the decrease in absorbance at 247 nm over a 5 minute period.
as §2

[4] = test system: feral pigeons; experiment: Three day no-choice feeding test with feral pigeons; assay type: in vivo; settings: 0.5% w/w compound/pellet, ± standard deviation; for Mean weight difference: after the test compared with before; for Mean consumption: treated food
Experimental: (§3) Feral pigeons were transferred from a communal outdoor aviary to individual cages and maintained on a 10 hour light - 14 hour dark cycle. Birds were gradually weaned away from their normal diet of maize, wheat and maple peas to a standard laboratory diet of turkey starter pellets.
(§4) The pellets were oven dried and then left to absorb atmospheric moisture. The control food was sprayed with the same volume of acetone/water mixture.
(§5) A group of 35 feral pigeons was caged individually for the trials which used eight compounds of formula (I) together with sucrose octaacetate and dimethyl anthranilate, both of which are substances which are known to be avian repellents. Each bird was subjected to treatment with each compound in a random order subject to the limitation of a latin square design. Each treatment was presented to the birds in no-choice and two-choice conditions. The no-choice phase lasted 3 days, during which a bird was presented with a single bowl containing 120 g of treated food. Each bird was weighed before and after the no-choice phase, as was the amount of food remaining. There immediately followed a two-choice phase in which the birds could choose between food treated with a given chemical and a bowl containing otherwise identical pellets without the chemical (the control treatment utilising two bowls of acetone/water treated pellets, one of which was arbitrarily selected as the control). The two-choice phase lasted four days during which food consumption was monitored daily. The position of the food bowls was alternated each day in order to overcome the confusing of food preference with position preference and ample water and grit were supplied throughout the trial.

[5] = test system: feral pigeons; experiment: Four day two-choice feeding test with feral pigeons; assay type: in vivo; settings: four day two-choice; 0.5% w/w compound/pellet
Experimental: as §3, §4, §5
The data obtained in the four day two-choice test is presented in Table 5 for mean consumption of treated food. […]

[6] = pear buds

Compound	Inhibition of Activity Chymotrypsin [1] [percentage]	Inhibition of Activity Trypsin [2] [percentage]	Inhibition of Activity [3] [percentage]	Mean weight difference [4] [grams]	Mean consumption [4] [grams]	Mean consumption of treated food [5] [grams]	residues as a percentage of the initial level ([6]; 192 h) [%]	residues as a percentage of the initial level ([6]; 1224 h) [%]
O=C(O)C=Cc1ccc(O)c(O)c1 [3,4-Dihydroxycinnamic acid]	85 ± 2	43 ± 3	22 ± 1	2.3 ± 1.1	63.3 ± 3.0	31.1 ± 3.4	8	–
O=C(O)C=Cc1ccccc1 [Cinnamic Acid, cinnamic acid]	32 ± 3	85 ± 2	93 ± 3	2.4 ± 1.1	60.4 ± 3.1	25.2 ± 2.9	41	3

From patent EP0321208A1, “Improvements in or relating to avian control” (priority 1987, dated 1989)
